# Experimental data published in patent US6649565B1, “Selective herbicides on the basis of a substituted phenylsulfonylaminocarbonyltriazolinone and safeners” (Bayer Aktiengesellschaft, priority 1999, dated 2003).
# Assays:
# [1] = test system: wheat of the cultivar Orestis; assay: Post-emergence test/greenhouse, damage to crop plant wheat; format: in vivo; settings: greenhouse, after approx. 18 days
# Text: (§1) The active compounds in question were used in the form of customary formulations. The sodium salt of the compound of the formula (I) was applied as 70 WG or 70 WP, mefenpyr-diethyl was applied as 100 EC and fenchlorazole-ethyl and cloquintocetmexyl were applied as a laboratory formulation of the active compound produced by ourselves. The active compounds and, if appropriate, the safeners were used to prepare an aqueous spray liquor comprising 0.1% of the additive Renex-36.
# (§2) The active compound preparation is used to spray test plants which were grown in 10×10 cm pots (growth medium: soil or vermiculte), such that the particular amounts of active compound desired are applied per unit area. The concentration of the spray liquor is chosen such that the particular amounts of active compound desired are applied in […].
# (§3) After approximately 18 days the degree of damage to the crop plants was rated in % damage in comparison with the development of the untreated control.
# (§4) 0%=no damage (like untreated control)
# (§5) 100%=total destruction/damage
# (§6) Active compounds, application rates, test plants and results are shown in the tables below, the terms used in the tables having the following meaning:
# wheat=wheat of the cultivar Orestis
# (§7) a.i.=active ingredient=active compound/safener
# [2] = test system: barley of the cultivar Coronar; assay: Post-emergence test/greenhouse, damage to crop plant barley; format: in vivo; settings: greenhouse, after approx. 18 days
# Text: as §1, §2, §3, §4, §5, §6
# barley=barley of the cultivar Coronar
# as §7
structure (smiles),measurement,setting,value
CCCOc1nn(C(=O)[N-]S(=O)(=O)c2ccccc2C(=O)OC)c(=O)n1C.[Na+],Damage wheat,"[1]; Table A1, 90 g of a.i./ha",20%
same,Damage wheat,"[1]; Table A1, 180 g of a.i./ha",30%
same,Damage wheat,"[1]; Table A2, 60 g of a.i./ha",20%
same,Damage wheat,"[1]; Table A2, 125 g of a.i./ha",30%
same,Damage wheat,"[1]; Table A2, 250 g of a.i./ha",50%
same,Damage wheat,"[1]; Table A3, 30 g of a.i./ha",5%
same,Damage wheat,"[1]; Table A3, 60 g of a.i./ha",10%
same,Damage wheat,"[1]; Table A3, 125 g of a.i./ha",50%
same,Damage wheat,"[1]; Table A4, 60 g of a.i./ha",30%
same,Damage wheat,"[1]; Table A4, 125 g of a.i./ha",40%
same,Damage wheat,"[1]; Table A7, 60 g of a.i./ha",20%
same,Damage wheat,"[1]; Table A7, 125 g of a.i./ha",30%
same,Damage wheat,"[1]; Table A7, 250 g of a.i./ha",50%
same,Damage wheat,"[1]; Table A8, 30 g of a.i./ha",5%
same,Damage wheat,"[1]; Table A8, 60 g of a.i./ha",10%
same,Damage wheat,"[1]; Table A8, 125 g of a.i./ha",50%
same,Damage barley,"[2]; Table A5, 15 g of a.i./ha",50%
same,Damage barley,"[2]; Table A5, 30 g of a.i./ha",70%
same,Damage barley,"[2]; Table A5, 60 g of a.i./ha",70%
same,Damage barley,"[2]; Table A6, 8 g of a.i./ha",50%
same,Damage barley,"[2]; Table A6, 15 g of a.i./ha",50%
same,Damage barley,"[2]; Table A6, 30 g of a.i./ha",60%
same,Damage barley,"[2]; Table A6, 60 g of a.i./ha",60%
same,Damage barley,"[2]; Table A9, 15 g of a.i./ha",50%
same,Damage barley,"[2]; Table A9, 30 g of a.i./ha",70%
same,Damage barley,"[2]; Table A9, 60 g of a.i./ha",70%
